Consider one compound from PMC6632198, “In planta high levels of hydrolysable tannins inhibit peroxidase mediated anthocyanin degradation and maintain abaxially red leaves of Excoecaria Cochinchinensis” (BMC Plant Biology, 2019).

The target of this assay is T1, ADE/POD (anthocyanin degradation enzyme/peroxidase), purified Osmanthus POD.
T1 construct: major in-gel activity band about 110 kDa on semi-native PAGE
In words: guaiacol oxidation, absorbance at […] nm. It counts as biochemical, Osmanthus fragrans. As to conditions: guaiacol and H2O2 as substrates, 50 mM phosphate buffer pH 7.0; partially purified enzyme.

`O=C(O)c1cc(O)c(O)c(O)c1` [gallic acid] had an IC50 of 35.55 μM GAE.
